Assay results from the supplement of paper PMC11061612.

What was measured:
Experiment in all cases: Bliss excess, mean over the matrix (fraction); higher = more synergy
[1] = tested on: RERF-LC-KJ (Lung Adenocarcinoma)
Outline: (§1)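 Cell lines grown in DMEM/F12 or RPMI with 10% FBS were plated in 1536-well plates and held 24 hours at 37°C, 5% CO2 before 72 hours of exposure to two-drug dose matrices, with DMSO typically at 0.2%. CellTiter-Glo 2.0 luminescence gave viability, which was converted to inhibition. Vehicle wells were set to 0 and blank wells to 1. Combination Emax is the second-highest inhibition in the matrix, and Bliss excess is the observed combination effect minus the expected EA + EB − EA·EB, where EA and EB are the single-agent effects.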

[2] = tested on: NCI-H1155 (Non-Small Cell Lung Carcinoma)
Outline: as §1

[3] = tested on: BALL-1 (B-Lymphoblastic Leukemia)
Outline: as §1

[4] = tested on: LAMA-84 (Chronic Myelogenous Leukemia)
Outline: as §1

[5] = tested on: OV-90 (Ovarian Carcinoma)
Outline: as §1

[6] = tested on: LOUCY (T-Lymphoblastic Leukemia)
Outline: as §1

[7] = tested on: NCI-H196 (Small Cell Lung Carcinoma)
Outline: as §1

[8] = tested on: PANC-02-03 (Pancreatic Carcinoma)
Outline: as §1

[9] = tested on: EB-3 (Burkitt's Lymphoma)
Outline: as §1

[10] = tested on: Calu-6 (Non-Small Cell Lung Carcinoma)
Outline: as §1

[11] = tested on: Becker (Low Grade Glioma)
Outline: as §1

[12] = tested on: NCI-H1623 (Lung Adenocarcinoma)
Outline: as §1

[13] = tested on: RMG-I (Ovarian Carcinoma)
Outline: as §1

HuO-3N1 (Osteosarcoma) = tested on: HuO-3N1 (Osteosarcoma)
Outline: as §1

[14] = tested on: SNU-175 (Colorectal Carcinoma)
Outline: as §1

[15] = tested on: AN3-CA (Endometrial Carcinoma)
Outline: as §1

[16] = tested on: SW684 (Other Solid Carcinomas)
Outline: as §1

[17] = tested on: CML-T1 (Chronic Myelogenous Leukemia)
Outline: as §1

[18] = tested on: NCI-H1755 (Lung Adenocarcinoma)
Outline: as §1

Structure (SMILES) | Bliss excess [1] | Bliss excess [2] | Bliss excess [3] | Bliss excess [4] | Bliss excess [5] | Bliss excess [6] | Bliss excess [7] | Bliss excess [8] | Bliss excess [9] | Bliss excess [10] | Bliss excess [11] | Bliss excess [12] | Bliss excess [13] | Bliss excess (HuO-3N1 (Osteosarcoma)) | Bliss excess [14] | Bliss excess [15] | Bliss excess [16] | Bliss excess [17] | Bliss excess [18]
Cc1nc(Nc2ncc(C(=O)Nc3c(C)cccc3Cl)s2)cc(N2CCN(CCO)CC2)n1 [Dasatinib] + CC(=O)Nc1cccc(-n2c(=O)n(C3CC3)c(=O)c3c(Nc4ccc(I)cc4F)n(C)c(=O)c(C)c32)c1 [Trametinib] (first compound max 2 µM, 7x7, partner max 1 µM) | -0.0295 | -0.0132 | -0.0108 | 0.0037 | -0.0067 | 0.0286 | -0.0634 | 0.0762 | -0.0156 | 0.179 | 0.0234 | -0.0775 | -0.0276 | -0.159 | -0.0992 | -0.168 | 0.0004 | -0.0296 | -0.0052
CS(=O)(=O)CCNCc1ccc(-c2ccc3ncnc(Nc4ccc(OCc5cccc(F)c5)c(Cl)c4)c3c2)o1 [Lapatinib] + C[C@@H](Oc1cc(-c2cnn(C3CCNCC3)c2)cnc1N)c1c(Cl)ccc(F)c1Cl [Crizotinib] (first compound max 10 µM, 7x7, partner max 10 µM) | 0.074 | -0.0185 | 0.0146 | 0.001 | -0.0019 | -0.102 | -0.0564 | -0.0617 | -0.0572 | 0.0122 | -0.0387 | 0.0555 | -0.0367 | -0.0423 | -0.0001 | -0.0223 | -0.0389 | -0.106 | -0.0468
Cn1cnc2c(F)c(Nc3ccc(Br)cc3Cl)c(C(=O)NOCCO)cc21 [Selumetinib] + C[C@@H]1COCCN1C2=NC(=NC(=C2)C3(CC3)[S@](=N)(=O)C)C4=C5C=CNC5=NC=C4 [AZD6738] (first compound max 10 µM, 7x7, partner max 10 µM) | 0.0075 | -0.0028 | -0.0066 | 0.0012 | 0.0049 | -0.0446 | -0.0607 | 0.04 | -0.069 | -0.032 | 0.0016 | 0.0028 | 0.0106 | -0.0994 | 0.0644 | 0.0359 | -0.071 | -0.0631 | 0.012
Cn1cnc2c(F)c(Nc3ccc(Br)cc3Cl)c(C(=O)NOCCO)cc21 [Selumetinib] + C=CCn1c(=O)c2cnc(Nc3ccc(N4CCN(C)CC4)cc3)nc2n1-c1cccc(C(C)(C)O)n1 [AZD1775] (first compound max 10 µM, partner max 1 µM) | -0.0044 | -0.0474 | 0.0018 | -0.0385 | -0.0274 | -0.196 | -0.0704 | -0.0033 | -0.0729 | -0.0133 | 0.0145 | -0.0223 | -0.0005 | -0.0972 | -0.0174 | -0.0495 | -0.106 | -0.0607 | 0.0496
CC(=O)c1c(C)c2cnc(Nc3ccc(N4CCNCC4)cn3)nc2n(C2CCCC2)c1=O [Palbociclib] + CC1(C)CCC(CN2CCN(c3ccc(C(=O)NS(=O)(=O)c4ccc(NCC5CCOCC5)c([N+](=O)[O-])c4)c(Oc4cnc5[nH]ccc5c4)c3)CC2)=C(c2ccc(Cl)cc2)C1 [Venetoclax] (first compound max 10 µM, 7x7, partner max 1 µM) | -0.0314 | 0.0241 | -0.0053 | 0.0201 | -0.0553 | 0.083 | -0.0608 | -0.0319 | -0.0455 | 0.0322 | -0.0205 | 0.011 | -0.0541 | -0.0312 | 0.0639 | -0.024 | -0.0492 | -0.0899 | 0.0337
NC1(C(=O)N[C@@H](CCO)c2ccc(Cl)cc2)CCN(c2ncnc3[nH]ccc23)CC1 [Capivasertib] + CCN(CCO)CCCOc1ccc2c(Nc3cc(CC(=O)Nc4cccc(F)c4)[nH]n3)ncnc2c1 [AZD2811] (first compound max 10 µM, 7x7, partner max 1 µM) | -0.0135 | -0.0152 | 0.0356 | 0.0341 | -0.0272 | -0.104 | -0.0276 | -0.0261 | 0.0152 | -0.0009 | -0.0136 | 0.0004 | -0.0214 | -0.0379 | 0.0058 | 0.0151 | -0.0532 | -0.0597 | -0.0289
CC(=O)c1c(C)c2cnc(Nc3ccc(N4CCNCC4)cn3)nc2n(C2CCCC2)c1=O [Palbociclib] + Cn1cnc2c(F)c(Nc3ccc(Br)cc3Cl)c(C(=O)NOCCO)cc21 [Selumetinib] (first compound max 10 µM, 7x7, partner max 10 µM) | -0.0208 | -0.0201 | -0.12 | -0.0263 | 0.0151 | -0.0138 | -0.0617 | 0.0334 | -0.0727 | -0.102 | 0.0393 | 0.0398 | -0.0165 | -0.0601 | 0.0599 | -0.0278 | -0.018 | -0.013 | 0.0425
NC1(C(=O)N[C@@H](CCO)c2ccc(Cl)cc2)CCN(c2ncnc3[nH]ccc23)CC1 [Capivasertib] + CC(=O)c1c(C)c2cnc(Nc3ccc(N4CCNCC4)cn3)nc2n(C2CCCC2)c1=O [Palbociclib] (first compound max 10 µM, 7x7, partner max 10 µM) | 0.0307 | -0.0084 | 0.0245 | 0.0059 | -0.0562 | 0.0824 | -0.0706 | -0.0351 | -0.0328 | 0.0488 | 0.0816 | -0.0156 | -0.0098 | -0.105 | -0.0442 | -0.0282 | 0.0176 | 0.0054 | 0.0036
